Results on seven compounds are retold here after patent US20130158111A1, “Compositions and Methods for Depleting Mutant p53” (Georgetown University, priority 2011, published 2013).

In test [1] the target is T1, mutant p53 in MDA-MB-231 breast cancer cells (Homo sapiens, UniProt P04637, R280K).
T1 construct: host or cells: MDA-MB-231
Briefly: Immunoblot of mutant p53 in MDA-MB-231 cells treated with ITCs. It is filed as cell-based. To be noted: for depletion of mutant p53 (FIG. 3B-E): H596 20 μM / MDA-MB-231 10 μM ITCs. From the text: (§1) Human H596, A549, HCT116, MDA-MB-231, MDA-MB-468, MCF-7, DU145, MCF-10A, SW480, and SCC-4 cells were obtained from ATCC (Manassas, Va.). H1299-175H cells were kindly provided by Dr. Maria Laura Avantaggiati (Georgetown University). Cells were maintained in DMEM or RPMI-1640 medium supplemented with 10% FBS (Hyclone). […] 2,2-Diphenylethyl ITC, 4-phenoxybenzyl ITC, 4-methoxybenzyl ITC, 4-chlorobenzyl ITC, Dα-methylbenzyl ITC, trityl ITC, and 3-phenylpropyl ITC were purchased from Trans World Chemicals (Rockville, Md.). Erucin and 4-phenylbutyl ITC were from LKT Laboratories, Inc. (St. Paul, Minn.). […] The p53 DO-1 and β-actin antibodies were purchased from Santa Cruz Biotechnology (Santa Cruz, Calif.), horseradish peroxidase-labeled goat antimouse secondary antibodies were purchased from GE-Healthcare (Pittsburgh, Pa.), and Bio-Rad Protein Assay was from Bio-Rad (Hercules, Calif.).
(§2) Whole cell lysates were prepared in lysis buffer (20 mM HEPES, pH 7.4, 2 mM EGTA, 50 mM β-glycerol phosphate, 1% Triton X-100, 10% glycerol, 1 mM DTT, 1 mM PMSF, […], 1 mM Na3-VO4, and 5 mM NaF). For immunoblot analysis, equal amounts of protein were resolved on 4-12% NuPAGE BisTris gels (Invitrogen) and transferred to PVDF membranes (Millipore). The membranes were blocked with 5% milk in TBST and were then probed with p53 (DO-1) or β-actin antibody. Proteins were detected using enhanced chemiluminescence (ECL) reagents (GE Healthcare).
Background: A western blot detects proteins with antibodies after separation by electrophoresis.

Test [2] relates to MDA-MB-231 breast cancer cells. The experiment in a line: FITC-annexin V / propidium iodide apoptosis assay. The class given is cell-based, Human. The settings on record: MDA-MB-231, 10 μM, 24 h; for induction of apoptosis vs DMSO: p<0.05. The method, then: Then, 100 μL of each sample was added to a 5 mm tube, and the annexin V apoptosis kit protocol was followed. Samples were immediately analyzed with flow cytometry.

Test [3] has as its target T2, mutant (G245C) p53 DNA-binding domain (Homo sapiens, UniProt P04637, G245C).
T2 construct: made in house; host or cells: Escherichia coli BL21
The experiment in a line: Monochlorobimane fluorometric cysteine binding assay. To be noted: 100 μM ITC, 1 h, 32 C; compared with trityl ITC, cyclohexylmethyl ITC, SFN, AITC, and PITC (p<0.05). The method, then:
BL21 […] Escherichia coli were transformed with pET29b wild-type or mutant (G245C) p53 DNA binding domain (DBD) plasmids. The E. coli were then cultured in LB media supplemented with 100 μM ZnCl2 and 25 μg/mL kanamycin at 37° C. until OD600=0.6-0.8. Protein expression was induced by 0.1 mM isopropyl β-D-1-thiogalactopyranoside for 16 h at 37 gC for wild-type and 16 gC for mutant p53. Bacterial pellets were then harvested by centrifugation at 5000×g, 10 min, 4 gC, and lysed via sonication in 50 mM Tris, 50 mM KCl, 5 mM dithiothreitol, 1 mM PMSF, pH 7 buffer. The soluble fraction was passed through a Capto S cation exchange column (GE Healthcare) and eluted with 50 mM Tris, 200 mM KCl, 5 mM DTT, pH 7. Eluted protein was dialyzed overnight against a non-salt dialysis buffer (50 mM Tris, 5 mM DTT, pH 7) and loaded onto a HiTrap Heparin HP column (GE Healthcare). The p53 DBD was purified via a AKTApurifier-10 protein liquid chromatography system (GE Healthcare) with an increasing KCl salt gradient, and purity was tested by SDSPAGE and Coomassie blue staining. Purified protein was dialyzed in PBS, and protein concentrations were determined prior to performing fluorescence experiments.
In a white 96-well plate, 100 μL of purified mutant (G245C) p53 DNA-binding domain protein in PBS was treated with DMSO, 100 μM ITCs in DMSO, or 500 μM iodoacetamide (positive binding control). An additional well containing 100 μL of PBS was used to determine background. Samples were incubated with compounds in the dark for 1 h at 32 gC, after which […] of 10 mM monochlorobimane was added (in the dark), and samples were further incubated in the dark at 32 gC for 30 min. Fluorescence readings were then obtained using a BIO-TEK Synergy HT plate reader (λex 380 nm; λem 485 nm).

In test [4] the target is T3, mutant p53 protein in H596 (G245C) non-small-cell lung cancer cells (Homo sapiens, UniProt P04637, G245C).
T3 construct: host or cells: H596
Briefly: Immunoblot of mutant p53 protein in H596 cells. The class given is cell-based.
Text: as §1, §2

SMILES strings stand for the structures.

As to `S=C=NCC(c1ccccc1)c1ccccc1` [2,2-diphenylethyl ITC, 2,2-diphenylethyl isothiocyanate], in test [1] (FIG. 3B-E), the “rank as depletor of mutant p53 among ITCs studied” value is “most potent”. For the same compound, the “depletion of mutant p53 (FIG. 3B-E)” value in test [1] is listed as “deplete mutant p53”. The “induction of apoptosis vs DMSO” value in test [2] was “greater induction of apoptosis”. Moreover, the “rank as inducer of apoptosis” value in test [2] (p<0.05 compared with BITC) is “strongest inducer of apoptosis”. In addition, in test [3], the “binding affinity for mutant (G245C) p53 DBD (free thiols, relative fluorescence)” value is recorded as “greater binding affinities”.

Take `S=C=NCCCc1ccccc1` [3-PPITC, 3-phenylpropyl ITC]: the “depletion of mutant p53 (FIG. 3B-E)” value in test [1] was “deplete mutant p53”. Moreover, in test [2], the “induction of apoptosis vs DMSO” value is reported as “greater induction of apoptosis”. In test [3], the “binding affinity for mutant (G245C) p53 DBD (free thiols, relative fluorescence)” value was “greater binding affinities”.

With `S=C=NCc1ccc(Cl)cc1` [4-chlorobenzyl ITC], in test [3], the “binding affinity for mutant (G245C) p53 DBD (free thiols, relative fluorescence)” value is listed as “greater binding affinities”.

For the compound `CNCCc1ccccc1` [NMPEA, N-methylphenethylamine, reference compound], the “mutant p53 protein level” value is “failed to alter” in test [4] (H596, 15 μM, up to 24 h) and “failed to alter” in test [4] (H596, 60 μM for 2 h).

With `S=C=NCCCCc1ccccc1` [4-PBITC, 4-phenylbutyl ITC], the “depletion of mutant p53 (FIG. 3B-E)” value in test [1] is on record as “deplete mutant p53”. Moreover, the “induction of apoptosis vs DMSO” value in test [2] is recorded as “greater induction of apoptosis”.

Consider `S=C=NCc1ccccc1` [BITC, benzyl isothiocyanate], for which the “level of mutant p53” value in test [4] (H596, 10 μM, 2 h) is “significantly reduced”. For the same compound, the “depletion of mutant p53 at equimolar concentrations” value in test [4] (H596, 20 μM ITCs, 24 h, compared with DMSO control) is “approximately the same extent”; in test [1] (MDA-MB-231, 10 μM ITCs, 24 h, compared with DMSO control), “approximately the same extent”. Besides, the “depletion of mutant p53 (FIG. 3B-E)” value in test [1] is “deplete mutant p53”. In addition, the “induction of apoptosis vs DMSO” value in test [2] is “greater induction of apoptosis”. In addition, in test [3], the “binding affinity for mutant (G245C) p53 DBD (free thiols, relative fluorescence)” value was “greater binding affinities”.

As to `COc1ccc(CN=C=S)cc1` [4-methoxybenzyl ITC], the “binding affinity for mutant (G245C) p53 DBD (free thiols, relative fluorescence)” value in test [3] is reported as “greater binding affinities”.
